Key:
[1] = UV-Vis absorbance spectrum; type: physicochemical
From the text: How might optovin activate TRPA1? When molecules absorb light, photons can excite electrons from their ground state to a […] via intersystem crossing^37. These photoactivated compounds can then undergo reactions by transferring energy or electrons to target molecules, including aqueous molecular oxygen. Optovin is a yellow-colored compound with peak absorbance at 415 nm (FIG. 4A). To determine if optovin is photochemically reactive, it was exposed to increasing intensities of 415 nm light and assayed for reactive oxygen species (ROS) generation.
Assay for singlet oxygen generation using singlet oxygen sensor green (SOSG) UV-vis absorption spectra were recorded at 20 uM in methanol using an Evolution 300 UV-Vis Spectrophotometer (Thermo Fisher Scientific Inc., Waltham, Mass.). 96-well black-sided plates were used for fluorescent probe experiments. […] An Omnilux Clear-U LED light source (Photo Therapeutics Inc), Carlsbad, Calif.) that emits blue light 415-nm+15-nm as a homogeneous spot with an irradiance of 50 mW/cm^2 measured with a power meter (model DMM 199 with 201 standard head; Coherent, Santa Clara, Calif.) that covers an area of one half of a 96-well plate.

hTRPA1 = target: T1, hTRPA1 (Homo sapiens, UniProt O75762); test: Calcium imaging of transfected HEK cells; type: cell-based
T1 construct: expressed in transfected cells; host or cells: HEK293 / HEK293T
Experimental: To determine if TRPA1 is sufficient for optovin activity, current density amplitudes were analyzed via whole-cell patch clamping in HEK293T cells transfected with the human TrpA1 (hTrpA1) gene.
HEK293 cells were plated onto poly-lysine-coated glass bottom culture dishes (MatTek Corp), and grown in Dulbecco's Modified Eagle's Medium (DMEM, Sigma) supplemented with 10% fetal bovine serum and 100 U/mL penicillin and 100 μg/ml streptomycin. After 24 hrs, cells were transfected, according to manufacturer's instructions, in Opti-MEM media, using 4 μl lipofectamine 2000 (Invitrogen), 0.5 ug EGFP in pcDNA, and 0.3 μg TrpA1 DNA per dish. Media was replaced after 2 hours, and cells were cultured for an additional 17 hours. As previously described for neurons, HEK cells were washed with assay buffer (HBSS Gibco 14025, supplemented with 9 mM HEPES, 11 mM D-glucose, 0.1% fatty-acid free BSA, pH 7.3) and incubated for 1 h with 2 μM Fura2-AM (Invitrogen) with 0.2% pluronic (Invitrogen) in assay buffer in the dark at room temperature. The cells were then washed with assay buffer and allowed to equilibrate at room temperature for 30 min prior to imaging. At the start of the imaging session for each dish, cells were replaced with DMSO-assay buffer. After 50 seconds of imaging, assay buffer was aspirated by hand, and replaced with 100 μM optovin dissolved in the DMSO-assay buffer solution. Each dish of HEK cells was imaged for a total of 3 minutes.
Cells were transfected with the hTRPA1^44, TRPA1 C621S^44, hTRPA1 C633S^45 and hTRPA1 C633S, C856S^45 plasmids as described.

T1 sequence (O75762 whole entry): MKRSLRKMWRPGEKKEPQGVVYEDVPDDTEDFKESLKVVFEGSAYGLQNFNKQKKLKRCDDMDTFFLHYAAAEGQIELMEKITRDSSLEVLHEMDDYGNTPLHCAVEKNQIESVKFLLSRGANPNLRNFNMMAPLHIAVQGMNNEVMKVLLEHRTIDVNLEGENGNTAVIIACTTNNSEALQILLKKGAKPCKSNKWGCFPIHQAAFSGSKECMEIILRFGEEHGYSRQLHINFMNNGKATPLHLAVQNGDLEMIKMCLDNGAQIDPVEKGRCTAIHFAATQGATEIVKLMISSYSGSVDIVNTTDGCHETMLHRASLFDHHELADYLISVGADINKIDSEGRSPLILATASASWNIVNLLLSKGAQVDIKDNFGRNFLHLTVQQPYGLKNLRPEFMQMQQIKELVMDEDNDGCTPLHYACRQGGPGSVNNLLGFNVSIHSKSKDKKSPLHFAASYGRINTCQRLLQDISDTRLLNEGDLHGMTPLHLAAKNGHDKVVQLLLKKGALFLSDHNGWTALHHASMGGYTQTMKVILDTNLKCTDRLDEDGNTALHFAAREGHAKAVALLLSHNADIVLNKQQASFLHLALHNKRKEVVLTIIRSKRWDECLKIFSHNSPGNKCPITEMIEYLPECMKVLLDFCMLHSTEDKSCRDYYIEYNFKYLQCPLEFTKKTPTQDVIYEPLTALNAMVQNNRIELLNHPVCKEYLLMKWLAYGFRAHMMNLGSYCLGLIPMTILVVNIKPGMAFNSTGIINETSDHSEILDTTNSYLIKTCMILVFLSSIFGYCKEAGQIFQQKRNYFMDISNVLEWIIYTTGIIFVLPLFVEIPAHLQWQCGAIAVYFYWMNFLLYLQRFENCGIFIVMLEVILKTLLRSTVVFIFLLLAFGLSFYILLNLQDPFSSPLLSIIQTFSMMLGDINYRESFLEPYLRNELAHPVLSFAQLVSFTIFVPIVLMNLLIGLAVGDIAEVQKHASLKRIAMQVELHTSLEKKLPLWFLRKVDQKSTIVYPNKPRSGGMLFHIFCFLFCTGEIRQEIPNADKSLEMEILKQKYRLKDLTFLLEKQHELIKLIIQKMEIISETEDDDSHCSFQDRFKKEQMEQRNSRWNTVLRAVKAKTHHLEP

Cc1cc(/C=C2/SC(=S)NC2=O)c(C)n1-c1cccnc1 [optovin]
peak absorbance [1]: 415 nm
change in fluorescence in response to light and optovin (hTRPA1; WT channels): strong change in fluorescence
effect of catalase and superoxide dismutase on optovin's effects (hTRPA1; hTRPA1 transfected HEK cells): Neither catalase nor superoxide dismutase reduce optovin's effects
calcium levels (hTRPA1; optovin and light, HEK cells transfected with hTrpA1): elevated calcium levels were observed
